Like-named read-outs stand apart in the source and are kept apart here. Blank lines part the entries; values can stand above or below the compound they belong to.
Tests used:
[1] = molecular target: T1, human cytidine deaminase (hCDA) (Homo sapiens, UniProt P32320); test: UV kinetic assay of hCDA-catalysed 2'-deoxycytidine deamination; assay type: biochemical; details: for Ki: substrate dC, competitive inhibition assumed
T1 construct: purchased Sigma-Aldrich SRP6372; host or cells: E. coli
Method: We monitored the hCDA-catalysed deamination of dC at 286 nm and analysed the kinetic profiles at various inhibitor concentrations using a global regression analysis of the kinetic data using Lambert’s W function. This method provides better estimates for the Michaelis–Menten constant (KM) and maximum velocity (Vmax) than nonlinear regression analysis of the initial rate (V0). […] Then, KM for the substrate and Ki for each inhibitor were calculated, assuming competitive nature of the inhibitors (Table 1).
We assumed that protonation of Va might result in some inhibition of hCDA. […] This means that the pH value of the assay should be close to pH 1.5 to see any meaningful effect of partially protonated compound Va, but hCDA would be denatured at this pH value. By lowering the pH value to 6.0, dZ (IIc) started to lose potency against hCDA (Table 1), which might be a result of protonation of the pyrimidine ring in dZ (IIc). […] At this pH value, less than 1 in 1,000 molecules of Va might be protonated, which could mean that protonated acid Va is a potent hCDA inhibitor.
Protein expression and purification
Recombinant human cytidine deaminase (hCDA) expressed in E.Coli was purchased form Sigma-Aldrich, product No SRP6372. […]
UV kinetic assay of hCDA-catalysed 2'-deoxycytidine
UV spectroscopy was used to monitor hCDA-catalysed deamination of 2'-deoxycytidine at 286 nm in 100 mM NaCl, 50 mM phosphate buffer at 25 °C at various pH as mentioned in the text. Cary 300 Bio UV-vis spectrometer from Varian was used. Enzymatic reactions were performed in a q uartz cuvette (0.1 cm). Deamination of 2'-deoxycytidine leads to a decrease in absorption at 286 nm (Figure […]
Figure S10. hCDA (27nM) catalysed deamination of 2'-deoxycitidine (⁓1.5 mM) in the absence (plus) and presence of 5 µM 2'-deoxyzebularine (IIc, asterisk) monitored by measuring absorbance at 286 nm over time in 100 mM NaCl, 1 mM TCEP, 50 mM phosphate buffer at 25 °C, at pH 7.4.
The uninhibited deamination (pluses, Figure S10) and the inhibited reaction start at about the same speed. As the reaction progresses, the inhibited reaction becomes slower, as its observed KM is larger than in the uninhibited case. In order to be able to visualize the fitted curves, only every 5th data point is plotted. The data was then fitted using Gnuplot to the integrated Michaelis Menten equation [10]: […]
(1 picture or pasted object on this page, not shown here) […]
where mm(t) calculates the current substrate concentration with respect to the time, t. The four parameters which are fitted are KM and vmax, the Michaelis-Menten constants, c is the initial substrate concentration and d is a baseline correction parameter. A summary of the measured inhibition […]
An increase in concentration of an inhibitor in enzymatic reaction leads to an increase in the observed KM value. The plot of observed KM values versus inhibitor concentration (Figures S11–S13) was then fitted with linear regression (y = ax + b) to derive the inhibition constant (Ki) using the following […]
Uncertainty of Ki was calculated using error-propagation method.
Figure S11. A plot of observed KM versus various concentration of dZ (IIc) in hCDA (27 nM) catalysed deamination of 2'-deoxycitidine in 100 mM NaCl, 1 mM TCEP, 50 mM phosphate buffer at 25 °C, at pH 7.4. […]

[2] = Estimation of pKa from change of λmax as a function of pH; assay type: physicochemical; details: estimated from change in λmax as a function of pH
Method: Figure S6. UV-vis spectra of compounds Va (A) and Vb (B) at 100 µM in 20 mM phosphate buffer, containing 10 %
Estimation of pKa of nucleoside Va
A change of λmax of nucleoside Va as a function of pH of the solution was plotted (Figure below) and
Figure S7. Change in λmax of nucleoside Va as a function of pH.
(1 picture or pasted object on this page, not shown here)

[3] = Stability in aqueous solution (NMR samples); assay type: physicochemical; details: for stability in sodium phosphate buffer: pH 7.0, NMR samples, several days
Source text: Catalytic hydrogenation is usually used for the removal of benzyl protecting groups. However, standard hydrogenation conditions using 10% Pd/C led to reduction of the C=C double bond in the nucleobase, providing nucleoside 24 (Scheme 3). To circumvent this problem, we used poisoned Pd catalyst (Lindlar’s catalyst, 5% Pd/CaCO3/3% Pb) and obtained the desired nucleoside 18. Individual anomers of nucleosides 18 and 24 were separated on a C18 column using a gradient of CH3CN in H2O. Removal of toluoyl groups was accomplished in aq NH3, providing pure α- and β-nucleoside of Va and Vc, respectively, carrying a negatively charged phosphinic acid group.

A3 enzymes = test system: A3 enzymes; set-up: method as in PMID 30418757; details: as the free nucleoside; cited from earlier work

T1 sequence (P32320 whole entry): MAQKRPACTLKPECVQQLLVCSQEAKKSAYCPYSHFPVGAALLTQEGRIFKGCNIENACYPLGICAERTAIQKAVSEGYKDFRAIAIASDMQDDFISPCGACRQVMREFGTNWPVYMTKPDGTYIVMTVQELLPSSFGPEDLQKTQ

- Ki ([1]; pH 7.4, 25 °C): lack of inhibition
- pKa [2]: ≤ 1.5
- stability in sodium phosphate buffer [3]: no decomposition
- stability in water ([3]; pH 7.4): excellent stability
SMILES: O=C1CP(=O)(O)C=CN1C1CC(O)C(CO)O1 (stereo not drawn) [Va]

- stability in sodium phosphate buffer [3]: no decomposition
SMILES: O=C1CP(=O)(O)CCN1C1CC(O)C(CO)O1 (stereo not drawn) [Vc]

- Ki ([1]; pH 4.7, 25 °C, read-out: Ki): 560 ± 100 µM
- Ki ([1]; pH 6.0, 25 °C): no inhibition
- Ki ([1]; pH 7.4, 25 °C): no inhibition
SMILES: O=C1CP(=O)(O)C=CN1C1CC(O)C(CO)O1 (stereo not drawn) [β-anomer of Va]

Second part, the compound before the results:

SMILES: Nc1ccn([C@H]2C[C@H](O)[C@@H](CO)O2)c(=O)n1 [dC, 2'-deoxycytidine, reference compound]
- Km ([1]; pH 7.4, fitted in the experiment with inhibitor dZ (IIc), read-out: Km of dC): 260 ± 40 µM

SMILES: O=c1ncccn1[C@H]1C[C@H](O)[C@@H](CO)O1 [dZ (IIc), 2'-deoxyzebularine, reference compound]
- Km/Ki ([1]; pH 6.0): 5.5
- Ki ([1]; pH 6.0, 25 °C, read-out: Ki): 49 ± 13 µM
- Km/Ki ([1]; pH 7.4): 24
- inhibition of A3 enzymes (A3 enzymes): does not inhibit

SMILES: NP1(=O)C=CN(C2CC(O)C(CO)O2)C(=O)C1 (stereo not drawn) [β-anomer of Vb]
- Km/Ki ([1]; pH 7.4): 30
- Ki ([1]; pH 7.4, 25 °C, read-out: Ki): 8 ± 1.9 µM

— paper PMC11106675, “Synthesis of 1,4-azaphosphinine nucleosides and evaluation as inhibitors of human cytidine deaminase and APOBEC3A” (Beilstein Journal of Organic Chemistry, 2024)
